Several values for one entry are separate records, joined by “and”; a condition that tells them apart may be missing. Identical values can stand only once. Marks after values point to notes of the source that are not given here.
Key:
[1] = tested on: NMDA receptor-ionophore complex (site labeled by [3H]MK-801); experiment: Inhibition of [3H]MK-801 binding in rat cortical/hippocampal washed membrane preparations; conditions: for IC50: read-out: IC50 (μM) vs. [3H]MK-801, rat cortical/hippocampal washed membranes
[2] = tested on: NMDA receptor; conditions: rat hippocampal slices
Protocol: Glutamate-mediated transmission at synapses of Schaffer collateral fibers and CA1 pyramidal cells was measured in slices of rat brain containing the hippocampus. This assay measures electrophysiologically the postsynaptic depolarization caused by the presynaptic release of glutamate, and can readily distinguish synaptic transmission mediated by NMDA or AMPA receptors.

[3] = tested on: sound-induced seizures; experiment: Sound-induced seizures in Frings mice (reflex epilepsy); assay type: in vivo; conditions: for ED50: Mus musculus, ip, Frings mice
[4] = tested on: mean arterial blood pressure
[5] = tested on: induction of LTP; set-up: species or system rat; conditions: at 300 μM
[6] = tested on: motor performance; experiment: Acute motor impairment (rotorod) in mice; conditions: Frings mice, i.c.v. injection
Protocol: (§1) In this assay, Frings and CF1 mice were injected with test compound and placed on a knurled rod which rotated at a speed of 6 rpm. The ability of the mice to maintain equilibrium for long periods of time was determined; those mice that were unable to maintain equilibrium on the rotorod for 1 min in each of 3 trials were considered impaired.

[7] = tested on: NMDA receptor; experiment: Inhibition of NMDA/glycine-induced increases in intracellular calcium in cultured rat cerebellar granule cells (RCGC); assay type: cell-based; conditions: for IC50: NMDA/glycine-induced increases in intracellular calcium, cultured rat cerebellar granule cells, read-out: IC50 (μM) vs. NMDA
[8] = in vivo; conditions: Frings, mouse, in vivo, ip
Protocol: as §1

| SMILES | IC50 [1] [µM] | IC50 [7] | also measured |
| --- | --- | --- | --- |
| NCCCNCCCNCCCNC(=O)Cc1c[nH]c2ccc(F)cc12 [Compound 9] | > 100 | 1.2 µM | % inhibition of [3H]MK-801 binding at the stated concentration (IC50 study incomplete) ([1]; at 100 μM): (10% at 100 μM)^d; Suppression of NMDA Receptor-Mediated Synaptic Transmission (concentration which suppresses) [2]: 10 to 100 µM; IC50, prevention of sound-induced seizures ([3]; intracerebroventricular (i.c.v.) injection): 4.77 µg; Drop in Mean Arterial Blood Pressure ([4]; 4.5 μmoles/kg i.v., rats): 75 mm Hg at; Drop in Mean Arterial Blood Pressure: duration ([4]; 4.5 μmoles/kg i.v., rats): i.v., 90 min; duration of the hypotensive effect ([4]; systemic administration in rats): approximately 30 min; LTP Assay (block of the induction of LTP) [5]: no block; TD50, acute motor impairment [6]: 14.8 µg |
| Cc1ccc(F)cc1C(CCN)c1cccc(F)c1 (stereo not shown) [Compound 57, 3-(3-fluorophenyl)-3-(3-fluoro-6-methylphenyl)-1-propylamine] | 0.063 | 0.028 µM | ED50 [3]: 1 mg/kg; TD50 [8]: 6 to 8 mg/kg |
| CC(C)C(CCN)c1cccc(F)c1 (stereo not shown) [Compound 37] | 11.1 | 0.944 µM | – |
| NCCC(Oc1cccc(Cl)c1)c1cccc(F)c1 (stereo not shown) [Compound 120] | 0.074 | 0.101 µM | ED50 [3]: 4.77 mg/kg; TD50 [8]: 20 to 30 mg/kg |
| Fc1cccc(C(c2cccc(F)c2)C2CCNC2)c1 (stereo not shown) [Compound 102] | 3.3 | 1.01 µM | – |
| COc1cccc(C(CCN)c2cccc(OC)c2)c1 [Compound 115, 3,3-bis(3-methoxyphenyl)-1-propylamine] | 1 | 1.4 µM and 1.9 µM | – |
| CNCCCC1c2ccccc2C=Cc2ccccc21 [protriptyline, reference compound] | 21.4 | ≤ 10 µM | % inhibition vs. NMDA [7]: 73% @ 10 μM |
| NCCC1c2ccccc2Oc2ccccc21 [Compound 182] | 7.05 | 2.6 µM | – |
| NCCN(c1ccccc1)c1ccccc1 [Compound 117] | 6 | 19.6 µM | – |
| NCCC(c1ccncc1)c1cccc(F)c1 (stereo not shown) [Compound 79] | 10.2 | 12.6 µM | – |
| NCCCC(c1cccc(F)c1)c1cccc(F)c1 [Compound 100, 4,4-bis(3-fluorophenyl)-1-butylamine] | 3.2 | 0.602 µM | – |
| CCC(NCCC(c1ccccc1)c1ccccc1)c1ccc(F)cc1 (stereo not shown) [Compound 165] | 171 | 0.337 µM | – |
| Cc1ccccc1C(CCN)c1ccccc1C [Compound 65, 3,3-bis(2-methylphenyl)-1-propylamine] | 2 | 0.167 µM | – |
| CCC(NCCC(c1ccccc1)c1ccccc1)c1ccc(C)cc1 (stereo not shown) [Compound 169] | 26.7 | 0.298 µM | – |
| CCC(NCCC(c1ccccc1)c1ccccc1)c1ccc(Cl)cc1 (stereo not shown) [Compound 160] | 48.9 | 7.35 µM | – |

Reference: US6750244B2, “Compounds active at a novel site on receptor-operated calcium channels useful for treatment of neurological disorders and diseases” (NPS Pharmaceuticals, Inc., priority 1993, dated 2004)
